From patent publication US20100284992A1 (priority 2006, published 2010)
Where a SMILES comes first, the peptide text is derived from it. The star is where a group is joined. Cbz = O=C(OCc1ccccc1)*; CH2F = FC*

Assays:
[1] = biological target: Pseudomonas aeruginosa hemolytic phospholipase C PlcHR2, wild type (Pseudomonas aeruginosa, UniProt P06200); type: biochemical
HUVEC = type: cell-based, Homo sapiens

Chain of Pseudomonas aeruginosa hemolytic phospholipase C PlcHR2, wild type (P06200 39-730 limits assumed): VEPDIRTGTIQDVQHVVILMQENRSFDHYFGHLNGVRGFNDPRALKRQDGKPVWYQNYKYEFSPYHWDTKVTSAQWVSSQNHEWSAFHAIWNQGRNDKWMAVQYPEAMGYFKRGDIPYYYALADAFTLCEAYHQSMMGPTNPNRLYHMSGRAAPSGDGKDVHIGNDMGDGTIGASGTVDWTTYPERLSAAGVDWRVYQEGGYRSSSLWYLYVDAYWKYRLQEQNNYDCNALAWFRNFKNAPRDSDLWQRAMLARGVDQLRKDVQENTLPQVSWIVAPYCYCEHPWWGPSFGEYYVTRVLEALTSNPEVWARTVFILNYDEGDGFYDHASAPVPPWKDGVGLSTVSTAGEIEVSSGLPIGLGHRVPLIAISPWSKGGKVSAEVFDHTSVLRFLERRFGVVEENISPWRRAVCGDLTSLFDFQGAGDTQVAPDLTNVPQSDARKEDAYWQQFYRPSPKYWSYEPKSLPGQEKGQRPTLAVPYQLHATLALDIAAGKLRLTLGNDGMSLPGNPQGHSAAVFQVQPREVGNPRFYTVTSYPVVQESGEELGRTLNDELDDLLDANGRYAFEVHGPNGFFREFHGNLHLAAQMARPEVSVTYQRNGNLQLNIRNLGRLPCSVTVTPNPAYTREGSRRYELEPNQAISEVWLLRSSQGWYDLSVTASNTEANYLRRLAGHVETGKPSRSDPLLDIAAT

Structure (SMILES) | Km ([1]; pH 7.2) | Vmax ([1]; pH 7.2) | kcat ([1]; pH 7.2, 37° C.) | reduction of PlcHR2-induced LDH release (HUVEC)
C[N+](C)(C)CCOP(=O)([O-])Oc1ccc([N+](=O)[O-])cc1 [NPPC, ρ-nitrophenyl-phosphorylcholine] | 19 mM | 147 ± 6 µmol/min/mg | 192 s⁻¹ | 
COC(=O)C[C@H](NC(=O)[C@H](C)NC(=O)[C@@H](NC(=O)OCc1ccccc1)C(C)C)C(=O)CF [Z-VAD-FMK] (Cbz-Val-Ala-Asp(OMe)-CH2F) |  |  |  | reduced the amount of LDH release
